# Data reported in BindingDB's records for doi:10.7270/Q2N301S8 (D3R/Abbott, 2020).
# Biological target: Beta-secretase 1 (Homo sapiens, UniProt P56817)
# Assay: D3R2027
# Description: D3R2027
# Chain of Beta-secretase 1 (P56817 whole entry): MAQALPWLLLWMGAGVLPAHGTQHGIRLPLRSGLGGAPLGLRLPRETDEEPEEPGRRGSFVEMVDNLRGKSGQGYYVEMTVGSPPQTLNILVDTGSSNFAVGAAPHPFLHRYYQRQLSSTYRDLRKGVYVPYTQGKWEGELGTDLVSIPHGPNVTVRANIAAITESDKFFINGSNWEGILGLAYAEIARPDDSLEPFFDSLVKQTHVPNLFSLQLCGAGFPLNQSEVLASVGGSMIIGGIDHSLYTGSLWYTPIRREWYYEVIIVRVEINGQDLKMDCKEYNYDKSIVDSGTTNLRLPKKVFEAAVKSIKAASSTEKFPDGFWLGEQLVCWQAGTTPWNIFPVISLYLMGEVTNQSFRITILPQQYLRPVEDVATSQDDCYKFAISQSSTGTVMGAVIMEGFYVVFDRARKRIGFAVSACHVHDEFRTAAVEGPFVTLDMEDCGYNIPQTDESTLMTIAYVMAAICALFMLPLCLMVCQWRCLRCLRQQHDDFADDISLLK
row,IC50,Compound
1,2 nM,CC(C)c1ccc2c(c1)[C@@H](NC[C@@H](O)[C@@H]1Cc3cccc(c3)OCCCCCC(=O)N(C)[C@@H](C)C(=O)N1)CC(C)(C)O2 [BACE_91]
2,540 nM,CC(C)c1cccc(C(C)(C)NC[C@@H](O)[C@@H]2C[C@H](C)CCCCCCCNc3cccc(c3)C(=O)N2)c1 [BACE_55]
3,8900 nM,CCOc1ccc(C(F)(F)F)c(CNC[C@@H](O)[C@@H]2C[C@H](C)CCOCCCCNc3cccc(c3)C(=O)N2)c1 [BACE_72]
4,2 nM,CC(=O)COc1cc2cc(c1)C(=O)N[C@H]([C@H](O)CNC1(c3cc(C(C)(C)C)ccn3)CC1)Cc1cccc(c1)CCCCO2 [BACE_133]
5,150 nM,Cc1cc2cc(n1)OCCCCc1cccc(c1)C[C@@H]([C@H](O)CNC(C)(C)c1cccc(C(C)C)c1)NC2=O [BACE_106]
6,300 nM,CC(C)c1cccc(CNC[C@@H](O)[C@@H]2C[C@H](C)CC/C=C/CCCCC(=O)N(C)[C@@H](C)C(=O)N2)c1 [BACE_21]
7,2 nM,CC(C)c1cccc(CNC[C@@H](O)[C@@H]2C[C@H](C)CCCCCN([C@H](C)c3ccccc3)C(=O)c3cc(cc(-c4ncco4)c3)C(=O)N2)c1 [BACE_7]
8,300 nM,C[C@@H]1CCCCCCCOc2cccc(c2)C(=O)N[C@H]([C@H](O)CN[C@@H](C)c2cc(CC(C)(C)C)on2)C1 [BACE_79]
9,7.5 nM,C[C@@H]1CCCCCCOCC(=O)N(C)[C@@H](C)C(=O)N[C@H]([C@H](O)CNC2(c3cccc(C(C)(C)C)c3)CC2)C1 [BACE_4]
10,1.5 nM,CC(C)(C)c1ccnc(C2(NC[C@@H](O)[C@@H]3Cc4cccc(c4)CCCCNc4cc(cc(-c5ncco5)c4)C(=O)N3)CC2)c1 [BACE_119]
11,10 nM,C[C@@H]1CC(=O)NCCCCOc2cccc(c2)C[C@@H]([C@H](O)CNC2(c3cccc(C(C)(C)C)c3)CCCCC2)NC1=O [BACE_93]
12,24 nM,C[C@@H]1CCCCCCCCS(=O)(=O)C[C@@H](C)C(=O)N[C@H]([C@H](O)CNC2(c3cccc(C(C)(C)C)c3)CC2)C1 [BACE_38]
13,560 nM,CCCCNC(=O)[C@H](C)C[C@H](O)[C@@H]1C[C@H](C)CCCCCCCCS(=O)(=O)C[C@@H](C)C(=O)N1 [BACE_151]
14,7.3 nM,C/C1=C\CCCCCCNc2cc(cc(C)n2)C(=O)N[C@H]([C@H](O)CNCc2cccc(C(C)C)c2)C1 [BACE_45]
15,3100 nM,CCCNc1cc(COC)cc(C(=O)N[C@@H](Cc2cccc(OC)c2)[C@H](O)CNCc2cccc(C(C)C)c2)c1 [BACE_146]
16,37000 nM,CC(C)c1ccnc(CNC[C@@H](O)[C@@H]2Cc3cccc(c3)OCCCCOc3cccc(c3)C(=O)N2C)c1 [BACE_139]
17,120 nM,CCCCNC(=O)[C@H](C)C[C@H](O)[C@@H]1Cc2ccc(O)c(c2)Cc2ccccc2OCC(=O)N[C@@H](C)C(=O)N1 [BACE_157]
18,1700 nM,CCc1cc(CNC[C@@H](O)[C@@H]2Cc3cccc(c3)OCCCCOc3cc(cc(C(=O)N(C)C)c3)C(=O)N2)ncn1 [BACE_141]
19,240 nM,CCCCNC(=O)[C@H](C)C[C@H](O)[C@@H]1Cc2cccc(c2)CCCCNc2cc(cc(C)n2)C(=O)N1 [BACE_155]
20,3 nM,CCCCNC(=O)[C@H](C)C[C@H](O)[C@@H]1C[C@H](C)CCCCCCC[C@H](NC(=O)OC(C)(C)C)C(=O)N[C@@H](C)C(=O)N1 [BACE_149]
21,89 nM,COc1cc2cc(n1)N(C)CCCCc1cccc(c1)C[C@@H]([C@H](O)CNCc1cccc(C(C)C)c1)NC2=O [BACE_99]

row,IC50,Compound
1,5.5 nM,COCc1cc2cc(n1)NCCCCOCC[C@@H](C)C[C@@H]([C@H](O)CNC1(c3cccc(C(C)(C)C)c3)CC1)NC2=O [BACE_47]
2,290 nM,CC(C)(NC[C@@H](O)[C@@H]1Cc2cccc(c2)OCCCCOc2cncc(c2)C(=O)N1)c1cccc(Br)c1 [BACE_138]
3,46 nM,Cc1cc2cc(n1)NN(C(=O)c1ccc(F)cc1)CCCCCC[C@@H](C)C[C@@H]([C@H](O)CNCc1cccc(C(C)C)c1)NC2=O [BACE_50]
4,6300 nM,CCOc1cc(CNC[C@@H](O)[C@@H]2C[C@H](C)CCOCCCCNc3cccc(c3)C(=O)N2)cc(C(F)(F)F)c1 [BACE_73]
5,10 nM,CC(=O)COc1cc2cc(c1)C(=O)N[C@H]([C@H](O)CNCc1cc(C(C)(C)C)ccn1)Cc1cccc(c1)CCCCO2 [BACE_135]
6,40000 nM,NC[C@@H](O)[C@@H]1Cc2cccc(c2)OC/C=C\CNc2cc(cc(Cl)n2)C(=O)N1 [BACE_104]
7,1 nM,C[C@@H]1CCCCCCCCC(=O)N(C)[C@@H](C)C(=O)N[C@H]([C@H](O)CN[C@@H](C)c2cc(CC(C)(C)C)on2)C1 [BACE_30]
8,270 nM,CC(C)Cc1cncc(C(C)(C)NC[C@@H](O)[C@@H]2C[C@H](C)CCCCCCCCC(=O)N(C)[C@@H](C)C(=O)N2)c1 [BACE_26]
9,6400 nM,COCc1cc2cc(c1)C(=O)O[C@@H](CNC1(c3cccc(C(C)C)c3)CC1)[C@@H](N)Cc1cccc(c1)OCCCCN2 [BACE_144]
10,1500 nM,CC(C)c1cccc(CNC[C@@H](O)[C@@H]2C[C@H](C)CCCCCCCCC(=O)N3CCCC[C@H]3C(=O)N2)c1 [BACE_85]
11,230 nM,C[C@@H]1CCCCCCCCC(=O)N(C)[C@@H](C)C(=O)N[C@H]([C@H](O)CNC(C)(C)c2cccc(Br)c2)C1 [BACE_28]
12,61000 nM,C[C@@H]1CCCCCCCCC(=O)N(C)[C@@H](C)C(=O)N[C@H]([C@H](O)CO)C1 [BACE_143]
13,1 nM,COCc1cc2cc(c1)C(=O)N[C@H]([C@H](O)CN[C@H]1CC(C)(C)Oc3ccc(C(C)C)cc31)C[C@H](C)CCCCCCCN2 [BACE_63]
14,240 nM,C[C@@H]1CCCCCCCCC(=O)N(C)[C@@H](C)C(=O)N[C@H]([C@H](O)CNC(C)(C)c2nnc(CC(C)(C)C)s2)C1 [BACE_31]
15,1900 nM,C[C@@H]1CCCCCCCNc2cccc(c2)C(=O)N[C@H]([C@H](O)CNCc2cc(C(C)(C)C)[nH]n2)C1 [BACE_58]
16,170 nM,C[C@@H]1CCCCCCCNc2cccc(c2)C(=O)N[C@H]([C@H](O)CNC2(c3cccc(C(C)(C)C)c3)COC2)C1 [BACE_56]
17,29 nM,CC(C)c1cccc(CNC[C@@H](O)[C@@H]2C[C@H](C)CCCCCCCOc3cc(cc(Cl)n3)C(=O)N2)c1 [BACE_51]
18,7.5 nM,CC(C)c1ccnc(C2(NC[C@@H](O)[C@@H]3C[C@H](C)CCCCCCCOc4cc(cc(Cl)n4)C(=O)N3)CC2)c1 [BACE_52]
19,7.8 nM,COc1cc2cc(n1)NCCCCc1cccc(c1)C[C@@H]([C@H](O)CNCc1cccc(C(C)C)c1)NC2=O [BACE_12]
20,260 nM,CC(C)Cc1cncc(C(C)(C)NC[C@@H](O)[C@@H]2Cc3cccc(c3)OCCCCNc3cccc(c3)C(=O)N2)c1 [BACE_123]
21,570 nM,COCc1cc2cc(c1)C(=O)N[C@H]([C@H](O)CNCc1cccc(C(C)C)c1)C[C@H](C)CCOCCCCN2 [BACE_10]

row,IC50,Compound
1,29 nM,CC(C)c1cccc(CNC[C@@H](O)[C@@H]2Cc3cccc(c3)OCCCCS(=O)(=O)C[C@@H](C)C(=O)N2)c1 [BACE_94]
2,1200 nM,CCCNc1cc(COC)cc(C(=O)N[C@@H](Cc2cccc(OC)c2)[C@H](O)CNC2(c3cccc(C(C)C)c3)CC2)c1 [BACE_145]
3,8 nM,CC(C)(C)Cc1cc(C(C)(C)NC[C@@H](O)[C@@H]2Cc3cccc(c3)OCCCCOc3cc(Cl)cc(c3)C(=O)N2)no1 [BACE_96]
4,6 nM,C[C@@H]1CCCCCCCOc2cc(cc(C(=O)N(C)C)c2)C(=O)N[C@H]([C@H](O)CNC2(c3cc(C(C)(C)C)ccn3)CC2)C1 [BACE_83]
5,27 nM,CC(C)c1ccnc(CNC[C@@H](O)[C@@H]2Cc3cccc(c3)CCCCOc3cc(cc(N4CCCC4=O)c3)C(=O)N2)c1 [BACE_136]
6,83 nM,Cc1cc2cc(n1)NCCCCOCC[C@@H](C)C[C@@H]([C@H](O)CNC(C)(C)c1cc(CC(C)(C)C)on1)NC2=O [BACE_48]
7,100 nM,Cc1cc2cc(n1)NC/C=C\COc1cc(ccc1F)C[C@@H]([C@H](O)CNC1(c3cccc(C(C)(C)C)c3)CC1)NC2=O [BACE_102]
8,68 nM,C[C@@H]1CS(=O)(=O)CCCCOc2cccc(c2)C[C@@H]([C@H](O)CNC2(c3cccc(Br)c3)CC2)NC1=O [BACE_95]
9,1600 nM,Cc1cc2cc(n1)CCCCCc1cccc(c1)C[C@@H]([C@H](O)CNCc1cccc(C(C)C)c1)NC2=O [BACE_113]
10,89 nM,CC(C)(C)c1ccnc(CNC[C@@H](O)[C@@H]2Cc3cccc(c3)OC/C=C\CNc3cc(cc(Cl)n3)C(=O)N2)c1 [BACE_103]
11,1700 nM,Cc1cc2cc(n1)OCCCOCC[C@@H](C)C[C@@H]([C@H](O)CNCc1cccc(C(C)C)c1)NC2=O [BACE_54]
12,5500 nM,CC(=O)N1CCCCOc2cccc(c2)C[C@@H]([C@H](O)CNCc2cc(C(C)C)ccn2)NC(=O)c2cc(C)nc1c2 [BACE_101]
13,68 nM,Cc1cc2cc(c1)OCCCCNc1cc(cc(Cl)n1)C(=O)N[C@H]([C@H](O)CNCc1cccc(C(C)C)c1)C2 [BACE_105]
14,100 nM,COCc1cc2cc(c1)C(=O)N[C@H]([C@H](O)CNCc1cnn(CC(C)C)c1)Cc1cccc(c1)OCCCCN2 [BACE_127]
15,14 nM,COc1cc2cc(n1)NCCCCCCC[C@@H](C)C[C@@H]([C@H](O)CNCc1cccc(C(C)C)c1)NC2=O [BACE_43]
16,130 nM,CCCCNC(=O)[C@H](C)C[C@H](O)[C@@H]1Cc2cccc(c2)CCCCCNc2cc(cc(OC)n2)C(=O)N1 [BACE_154]
17,0.5 nM,CC(C)c1ccnc(C2(NC[C@@H](O)[C@@H]3Cc4cccc(c4)CCCCNc4cc(cc(Cl)n4)C(=O)N3)CC2)c1 [BACE_98]
18,290 nM,CC(C)c1cccc(C(C)(C)NC[C@@H](O)[C@@H]2Cc3cccc(c3)CCCCNc3cccc(c3)C(=O)N2)c1 [BACE_115]
19,93 nM,COCc1cc2cc(c1)C(=O)N[C@H]([C@H](O)CNCc1cccc(C(C)C)c1)C[C@H](C)CCCCCCCN2 [BACE_9]
20,960 nM,COc1ccc2cc1OCCCCNc1cc(CO)cc(c1)C(=O)N[C@H]([C@H](O)CNCc1cccc(C(C)C)c1)C2 [BACE_130]
